System: Legionella pneumophila
Assay type: cell-based
Details: after THPS 15 mg/L, 60 min; 0.1% pyruvate and/or 1% glutamic acid in BCYE

SMILES | ratio of number of culturable Legionella on supplemented medium to standard medium (BCYE)
N[C@@H](CCC(=O)O)C(=O)O [glutamic acid] | 0.2
CC(=O)C(=O)O [pyruvate] | 45

Reference: patent publication US9181575B2 (priority 2008, dated 2015)
